Results published in the NIST ThermoML archive (doi:10.1021/je2001649).
Numbers after ± are expanded uncertainties.

Conditions: Crystal; visual observation

c1ccc2c(c1)Nc1ccccc1S2 [10H-phenothiazine]
Normal melting temperature: 183 ± 1 °C
